Test results reported in article PMC7483518, “Destabilizing single chain major histocompatibility complex class I protein for repurposed enterokinase proteolysis” (Scientific Reports, 2020).
Values joined by “and” are separate entries in the source; they are usually repeats but may differ in a detail not shown here. Equal entries are not always repeated. Where two headings read alike, the source gives them in different places.

Tests used:
[1] = target: photolabile unchained HLA-A*11:01 pMHC-I protein (Homo sapiens, UniProt P04439, A114D/D185E/E176A/F33Y/L180Q/S129P/T187R); assay: ELISA with photolabile unchained pMHC-I protein and UV irradiation; format: binding
[2] = tested on: HLA-A*11:01 single chain protein; format: biochemical, Human; parameters: EZ50kDa / EZ50kD (pH 6.2) / EZ50kD (pH 8) / EZ50kD (normalised: EBV1101 = 1, EBV0201 = 0) / EZ50kDa rank: unit not given beside the values; settings: for EZ50kDa: Table 3, EGFR peptide library (n = 177, duplicated), pH 6.2, 37 °C, 14 h, enterokinase, Eq. (4);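 as to EZ50kDa: intact 50 kDa band volume scaled with positive control peptide as 1 and negative as 0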
[3] = EASY MHC-I A*11:01, 2019-07-26, mean of the 2 replicates
[4] = EASY MHC-I A*11:01, 2019-08-01, mean of the 2 replicates
[5] = EASY MHC-I A*11:01, run 2019-08-06, 5min, mean of 2 replicates
[6] = EASY MHC-I A*11:01, run 2019-08-07, 5min, mean of 2 replicates
[7] = EASY MHC-I A*11:01, run 2019-08-08, 5min, mean of 2 replicates
[8] = EASY MHC-I A*11:01, gel 2019-07-17 lr1028-1036 5min, mean of 2 replicates
[9] = EASY MHC-I A*11:01, gel 2019-07-17 lr1028-1036 5min, replicate 1 (lanes 1-14)
[10] = EASY MHC-I A*11:01, gel 2019-07-17 lr1028-1036 5min, replicate 2 (lanes 15-28)

Row | Sequence | EASY_mean [1] | EASY_mean ([1]; […], mean, STDEV) | EZ_mean [2] | further results
1 | IKTSPKANKEI [EX1020] |  |  |  | EASY_mean ([1]; ELISA signal, mean, […]): -0.02309; EZ_mean [2, 3]: -0.1313
2 | IKTSPKANKEIL [EX1028] | -0.02595 |  |  | EZ_mean [2, 4]: -0.1371
3 | IMQLMPFG [TM1007] |  |  |  | EASY_mean ([1]; ELISA signal, mean, […]): -0.02903; EZ_mean [2, 5]: -0.09302
4 | IMQLMPFGC [TM1016] |  | -0.02516 |  | EZ_mean [2, 6]: -0.08902
5 | IMQLMPFGCL [TM1026] |  |  |  | EASY_mean ([1]; ELISA signal, mean, […]): -0.02435; EZ_mean [2, 7]: -0.06176; Norm_mean [2, 7]: -0.05556
6 | IMQLMPFGCLL [TM1037] |  |  | -0.1199 | EASY_mean ([1]; ELISA signal, mean, […]): -0.05375
7 | IMQLMPFGCLLD [TM1049] | -0.01469 |  | -0.08186 | 
8 | IPVAIKTSPKA [EX1016] |  | -0.002293 |  | EZ_mean [2, 3]: -0.1024
9 | IPVAIKTSPKAN [EX1024] | -0.02211 |  |  | EZ_mean [2, 4]: -0.1301
10 | ITDFGRAKLL [LR1022] |  | -0.02159 | -0.0609 | 
11 | ITDFGRAKLLG [LR1033] | -0.04357 |  |  | EZ_mean [2, 8]: -0.04472; EZ50kD (normalised: EBV1101 = 1, EBV0201 = 0) [2, 9]: -0.05531; Norm (50 kDa band adj. volume normalised: Undig_37C = 1, Dig_37C = 0) [2, 9]: -0.05765; EZ50kD (normalised: EBV1101 = 1, EBV0201 = 0) [2, 10]: -0.03414; Norm (50 kDa band adj. volume normalised: Undig_37C = 1, Dig_37C = 0) [2, 10]: -0.02949
12 | ITDFGRAKLLGA [LR1045] | -0.00307 |  | -0.0656 | 
13 | ITQLMPFGS [CS1009] | -0.02581 |  | -0.06498 | 
14 | ITQLMPFGSL [CS1019] | -0.007918 |  | -0.0702 | 
15 | ITQLMPFGSLLD [CS1042] | -0.01907 |  | -0.03951 | 
16 | KIPVAIKTSPKA [EX1023] | -0.01234 |  |  | EZ_mean [2, 4]: -0.1135
17 | KITDFGRA [LR1002] |  | -0.007222 | -0.03733 | 

Row | Sequence | EASY_mean [1] | EASY_mean ([1]; […], mean, STDEV) | EZ_mean [2] | further results
18 | KITDFGRAKL [LR1021] |  | -0.0154 | -0.05252 | 
19 | KITDFGRAKLL [LR1032] | 0.009234 |  |  | EZ_mean [2, 8]: 0.03523; EZ50kD (normalised: EBV1101 = 1, EBV0201 = 0) [2, 9]: 0.01844; Norm (50 kDa band adj. volume normalised: Undig_37C = 1, Dig_37C = 0) [2, 9]: -0.01259; EZ50kD (normalised: EBV1101 = 1, EBV0201 = 0) [2, 10]: 0.05201; Norm (50 kDa band adj. volume normalised: Undig_37C = 1, Dig_37C = 0) [2, 10]: 0.03105; EZ50kDa [2]: 0.0352 ± 0.024
20 | KITDFGRAKLLG [LR1044] | 0.1191 |  | 0.1681 | EZ50kD (normalised: EBV1101 = 1, EBV0201 = 0) [2]: 0.1471 and 0.1891; Norm (50 kDa band adj. volume normalised: Undig_37C = 1, Dig_37C = 0) [2]: 0.1017 and 0.1364; EZ50kDa [2]: 0.2 and 0.168 ± 0.030
21 | KTSPKANK [EX1003, EGFR exon 19 deletion-derived peptide] | 0.02773 |  | 0.03406 | EZ50kDa [2]: 0.0341 ± 0.022
22 | KTSPKANKE [EX1008] |  | -0.00166 |  | EZ_mean ([2]; EASY MHC-I A*11:01, 2019-07-25, mean of the 2 replicates): -0.03131
23 | KTSPKANKEI [EX1014] |  | -0.002118 |  | EZ_mean [2, 3]: -0.1022
24 | KTSPKANKEIL [EX1021] |  | -0.001833 |  | EZ_mean [2, 3]: -0.102
25 | KTSPKANKEILD [EX1029] | -0.02661 |  |  | EZ_mean [2, 4]: -0.1385
26 | LIMQLMPF [TM1006] |  | -0.03127 |  | EZ_mean [2, 5]: -0.09815
27 | LIMQLMPFG [TM1015] |  | -0.03975 |  | EZ_mean [2, 6]: -0.1155
28 | LIMQLMPFGC [TM1025] |  |  |  | EASY_mean ([1]; ELISA signal, mean, […]): -0.02724; EZ_mean [2, 7]: -0.05365; Norm_mean [2, 7]: -0.04493
29 | LIMQLMPFGCL [TM1036] |  |  | -0.1248 | EASY_mean ([1]; ELISA signal, mean, […]): -0.07162
30 | LIMQLMPFGCLL [TM1048] | -0.04956 |  | -0.1103 | 
31 | LITQLMPFGS [CS1018] | 0.007236 |  | -0.05783 | 
32 | LITQLMPFGSL [CS1029] | -0.02804 |  | -0.07478 | 
33 | LMPFGSLL [CS1003] | 0.002317 |  | -0.06827 | 
